In patent US11872324B2, “Materials and methods for tissue regeneration” (The University Court of the University of Glasgow, priority 2015, dated 2024):
Each block holds one molecule with its values, some of them ahead of it.

Legend:
[1] = test system: Murine embryonic mesenchymal stem cells (mMSCs) C3H10T1/2; assay: Inhibition of contractility in mMSCs; format: cell-based; conditions: for osteogenic marker expression: mMSCs on all substrates, 20 μM inhibitor; for Staining for pMLC / expression of stemness markers (Sca1, CD29): mMSCs; for Staining for pMLC: 10 and 20 μM inhibitor; for expression of stemness markers (Sca1, CD29): 15 days, basal conditions with inhibitor
ERK1/2 = ERK1/2 phosphorylation ELISA in HUVEC; format: cell-based, human; conditions: 30 min
Experimental: VEGF bound to substrates was assayed indirectly by measuring remaining VEGF in coating solution with a sandwich ELISA kit according to the manufacturer's instructions (DuoSetDY293B, R&D Systems). Levels of phosphorylation of ERK1/2 in HUVECs seeded onto functionalized surfaces were assessed after 30 min incubation using DuoSet ELISA kit following the manufacturer's instructions (DuoSetDYC1018B, R&D Systems). Human umbilical vein endothelial cells (HUVEC) (Cellworks) were maintained in HLVEC complete media (Cellworks). For any experiment, cells with not higher than 10 population doublings were used (usually corresponding up to P5). For network formation experiments, cell seeding density was optimized, and cells were eventually seeded at 10,000 cells/cm^2. Seeding was done on protein-functionalized and control polymer-coated substrates, and cells were left to adhere in a CO2 incubator at 37° C. After 16 h, medium was removed and replaced with fibrinogen solution (20 mg/ml) in HLVEC complete media, containing also 50 U/ml of thrombin and 1.2 mg/ml of aprotinin; to allow complete fibrinogen clotting, samples were placed in CO2 incubator for 1 h. After clotting, fibrin matrix was covered with 0.5 ml HLVEC complete media with 25 ng/ml of VEGF where required, and samples were kept at 37° C. for 6 day period, with media changed every second day.

VEGFR-2 = VEGFR-2 (Homo sapiens, UniProt P35968)
Chain of VEGFR-2 (P35968 20-1356): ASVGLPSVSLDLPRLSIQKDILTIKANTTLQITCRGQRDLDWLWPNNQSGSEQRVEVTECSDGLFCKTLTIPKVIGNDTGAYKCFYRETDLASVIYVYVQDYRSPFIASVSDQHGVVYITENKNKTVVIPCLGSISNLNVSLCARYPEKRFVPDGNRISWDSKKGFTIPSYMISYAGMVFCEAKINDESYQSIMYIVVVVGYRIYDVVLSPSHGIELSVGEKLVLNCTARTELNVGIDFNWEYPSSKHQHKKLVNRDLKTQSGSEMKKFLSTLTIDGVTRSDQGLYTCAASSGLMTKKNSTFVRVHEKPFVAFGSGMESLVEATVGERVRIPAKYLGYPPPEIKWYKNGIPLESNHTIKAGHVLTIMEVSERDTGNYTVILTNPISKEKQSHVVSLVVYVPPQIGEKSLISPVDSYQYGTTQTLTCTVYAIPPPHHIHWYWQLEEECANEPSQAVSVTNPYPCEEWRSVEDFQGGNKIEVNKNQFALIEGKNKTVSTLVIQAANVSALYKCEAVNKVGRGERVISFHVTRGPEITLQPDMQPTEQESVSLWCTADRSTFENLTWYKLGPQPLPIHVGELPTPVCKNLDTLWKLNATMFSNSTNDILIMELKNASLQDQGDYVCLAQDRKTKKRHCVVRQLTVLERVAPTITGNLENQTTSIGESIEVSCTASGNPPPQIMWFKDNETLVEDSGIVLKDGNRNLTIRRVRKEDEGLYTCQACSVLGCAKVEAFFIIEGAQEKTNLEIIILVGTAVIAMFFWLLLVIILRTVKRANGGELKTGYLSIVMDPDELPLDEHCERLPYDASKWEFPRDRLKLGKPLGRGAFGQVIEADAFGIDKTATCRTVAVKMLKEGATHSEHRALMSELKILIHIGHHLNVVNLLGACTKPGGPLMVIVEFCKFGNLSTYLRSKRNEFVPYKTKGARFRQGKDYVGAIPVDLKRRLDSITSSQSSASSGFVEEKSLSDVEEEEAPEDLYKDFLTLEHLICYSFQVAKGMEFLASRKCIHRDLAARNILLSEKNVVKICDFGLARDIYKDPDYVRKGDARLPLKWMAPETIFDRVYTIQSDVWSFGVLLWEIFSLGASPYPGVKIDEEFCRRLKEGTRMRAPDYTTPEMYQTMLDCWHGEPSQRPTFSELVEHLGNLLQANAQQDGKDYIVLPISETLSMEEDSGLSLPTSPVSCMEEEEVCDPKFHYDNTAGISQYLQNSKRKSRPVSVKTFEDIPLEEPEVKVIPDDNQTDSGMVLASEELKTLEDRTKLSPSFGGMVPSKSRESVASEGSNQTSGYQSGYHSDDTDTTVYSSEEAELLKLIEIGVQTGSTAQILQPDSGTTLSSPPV
Experimental: The most direct way to look at VEGF effect on downstream signaling was to assess its receptor phosphorylation. An immunofluorescence test for presence of phosphorylated VEGFR-2 was performed on standard HUVEC culture on tissue plastics, when cells were stimulated with 25 ng/ml of VEGF for two different time periods (2 min and 30 min). […] Therefore it was decided to assay phosphorylation of one of the downstream effectors, ERK1/2 which is activated via MAPK branch of GF receptor signaling.

[2] = molecular target: Fibronectin (FN) from human plasma adsorbed on poly(ethyl acrylate) (PEA), organised into a fibrillar (nano)network (human) (UniProt P02751); assay: ELISA; BMP-2 adsorbed on FN-coated polymer implant tubes
[3] = molecular target: Fibronectin (FN) from human plasma adsorbed on poly(ethyl acrylate) (PEA), organised into a fibrillar (nano)network (human) (UniProt P02751); assay: sandwich ELISA of BMP-2 released from FN-coated surfaces
[4] = molecular target: Fibronectin (FN) from human plasma adsorbed on poly(ethyl acrylate) (PEA), organised into a fibrillar (nano)network (human) (UniProt P02751); assay: ELISA; BMP-2 adsorbed from 5 µg/ml on FN-coated polymer implant tubes
[5] = test system: Human bone marrow mesenchymal stem cells (hMSCs); assay: Alkaline phosphatase staining of hMSCs; format: cell-based; conditions: 28 days, noggin 50 ng/ml
Experimental: Human bone marrow mesenchymal stem cells (hMSCs) from Promocell were maintained in basal media (αMEM, 10% FBS, 1% P/S, 1% fungizone, 2 mM L-glutamine, 1 ng/ml FGF-2) at 37° C. with 5% CO2. Cells were seeded onto the materials at 10^4 cells/cm2 using seeding media (DMEM high glucose, 1% P/S, 1% FBS,) and media were changed twice a week. For all cultures the first 2 hours (initial cell adhesion) were in absence of serum and GF. Cells were used at passages P0-P3. Each experiment was performed in triplicate.
Cells were cultured on materials for 28 days. Noggin (50 ng/ml) was added in a set of samples and phosphate deposition was analysed by an Alkaline Phosphatase assay (Sigma, 86C-1KT). Cells were fixed with the fixative solution (citrate-acetone-formaldehide solution) at RT for 30 s. Afterwards, samples were stained with the alkaline-dye mixture and incubated at RT in darkness for 15 min. Samples were counterstained for 2 minutes with neutral red solution and rinsed in tap water.

Molecule: Cc1ccc2c(c1)C(=O)C1(O)CCN(c3ccccc3)C1=N2 (centres unmarked) [blebbistatin]
osteogenic marker expression [1]: greatly reduced | Staining for pMLC [1]: reduced in a dose-dependent manner | expression of stemness markers (Sca1, CD29) [1]: strongly reduced

Molecule: C[C@@H](N)[C@H]1CC[C@H](C(=O)Nc2ccncc2)CC1 [Y-27632]
osteogenic marker expression [1]: greatly reduced | Staining for pMLC [1]: reduced in a dose-dependent manner | expression of stemness markers (Sca1, CD29) [1]: strongly reduced

Molecule: VEGF
ERK1/2 phosphorylation, VEGF present in the medium (ERK1/2; PEA samples vs PEA sample without VEGF): did not show any difference | ERK1/2 phosphorylation, VEGF coated on PEA (ERK1/2; vs PEA without bound VEGF): higher level | phosphorylated VEGFR-2 after 2 min (VEGFR-2): present | phosphorylated VEGFR-2 after 30 min (VEGFR-2): no phosphorylation was detected

amount of BMP-2 on the coated tube [2]: 15 ng | BMP-2 released after 14 days [3]: < 10% | surface density [4]: 100 ng/cm^2
B1: BMP-2 (R&D Systems, 355-BM or 355-BM/CF) (ligand, UniProt P12643 283-396, looked up)
chain: QAKHKQRKRLKSSCKRHPLYVDFSDVGWNDWIVAPPGYHAFYCHGECPFPLADHLNSTNHAIVQTLVNSVNSKIPKACCVPTELSAISMLYLDENEKVVLKNYQDMVVEGCGCR

B2: noggin: used as BMP-2 inhibitor to prevent activity (50 ng/ml) (protein)
chain: QHYLHIRPAPSDNLPLVDLIEHPDPIFDPKEKDLNETLLRSLLGGHYDPGFMATSPPEDRPGGGGGAAGGAEDLAELDQLLRQRPSGAMPSEIKGLEFSEGLAQGKKQRLSKKLRRKLQMWLWSQTFCPVLYAWNDLGSRFWPRYVKVGSCFSKRSCSVPEGMVCKPSKSVHLTVLRWRCQRRGGQRCGWIPIQYPIISECKCSC
PEA driven FN/BMP-2 osteogenic differentiation (ALP) [5]: reduced
